Experimental data from ChEMBL document CHEMBL4346730 (Bioorg Med Chem, 2019).
Converted amounts (≈) assume the structure as drawn.

Key:
[1] = Inhibition of bovine corpus striatum PDE10A using [3H]cAMP or [3H]cGMP as substrate preincubated for 5 mins followed by substrate addition and measured after 30 mins by liquid scintillation counting method; parameters: species or system Bos taurus
[2] = Solubility in artificial interstitial fluid at pH 5 by HPLC analysis; assay type: physicochemical
hERG (KCNH2) = hERG (KCNH2) (Homo sapiens, UniProt Q12809); assay: Inhibition of human ERG at 1 uM relative to control
[3] = Chromatographic hydrophobicity index, log D of the compound at pH 7.4 by reverse-phase HPLC analysis; assay type: physicochemical; conditions: buffer
[4] = target: cAMP and cAMP-inhibited cGMP 3',5'-cyclic phosphodiesterase 10A (Homo sapiens, UniProt Q9Y233); assay: Inhibition of human N-terminal FLAG-tagged PDE10A (1 to 90 residues) expressed in using African green monkey COS7 cells using [3H]cAMP or [3H]cGMP as substrate preincubated for 5 mins followed by substrate addition and measured after 30 mins by liquid scintillation counting method
[5] = Oral bioavailability in Wistar rat at 3 mg/kg; assay type: ADME, organism-based; conditions: in vivo
[6] = Unbound brain-to-plasma concentration ratio in Wistar rat at 3 mg/kg, po; assay type: ADME, organism-based
[7] = Half life in Wistar rat at 0.3 mg/kg, iv; assay type: ADME, organism-based; conditions: in vivo
[8] = Intrinsic clearance in human liver microsomes; assay type: ADME, Microsome; conditions: read-out: CLH
[9] = Ratio of IC50 for PDE1 (unknown origin) to IC50 for bovine corpus striatum PDE10A
[10] = Ratio of IC50 for PDE4 (unknown origin) to IC50 for bovine corpus striatum PDE10A
[11] = Ratio of IC50 for PDE2A (unknown origin) to IC50 for bovine corpus striatum PDE10A
[12] = Ratio of IC50 for PDE3A (unknown origin) to IC50 for bovine corpus striatum PDE10A
[13] = Ratio of IC50 for PDE5A (unknown origin) to IC50 for bovine corpus striatum PDE10A
[14] = Ratio of IC50 for PDE6 (unknown origin) to IC50 for bovine corpus striatum PDE10A
[15] = Ratio of IC50 for PDE7B (unknown origin) to IC50 for bovine corpus striatum PDE10A
[16] = Ratio of IC50 for PDE8A (unknown origin) to IC50 for bovine corpus striatum PDE10A
[17] = Ratio of IC50 for PDE9A (unknown origin) to IC50 for bovine corpus striatum PDE10A
[18] = Ratio of IC50 for PDE11A (unknown origin) to IC50 for bovine corpus striatum PDE10A
Phosphodiesterase 4 = Phosphodiesterase 4 (Homo sapiens, UniProt P27815+Q08499+Q07343+Q08493); assay: Inhibition of PDE4 (unknown origin); assay type: protein assay
[19] = target: cGMP-specific 3',5'-cyclic phosphodiesterase (Homo sapiens, UniProt O76074); assay: Inhibition of PDE5A (unknown origin)
Phosphodiesterase 6 = assay: Inhibition of PDE6 (unknown origin); assay type: protein assay, Homo sapiens
Rattus norvegicus = assay: Antipsychotic activity in po dosed Wistar rat assessed as inhibition of electric stimulation-induced conditioned avoidance responses measured up to 6 days; assay type: functional; conditions: 144 h, read-out: ID50 (the source's name)
[20] = Clearance in Wistar rat at 0.3 mg/kg, iv; conditions: in vivo
[21] = Volume of distribution at steady state in Wistar rat at 0.3 mg/kg, iv; conditions: in vivo

hERG (KCNH2), sequence (Q12809 whole entry): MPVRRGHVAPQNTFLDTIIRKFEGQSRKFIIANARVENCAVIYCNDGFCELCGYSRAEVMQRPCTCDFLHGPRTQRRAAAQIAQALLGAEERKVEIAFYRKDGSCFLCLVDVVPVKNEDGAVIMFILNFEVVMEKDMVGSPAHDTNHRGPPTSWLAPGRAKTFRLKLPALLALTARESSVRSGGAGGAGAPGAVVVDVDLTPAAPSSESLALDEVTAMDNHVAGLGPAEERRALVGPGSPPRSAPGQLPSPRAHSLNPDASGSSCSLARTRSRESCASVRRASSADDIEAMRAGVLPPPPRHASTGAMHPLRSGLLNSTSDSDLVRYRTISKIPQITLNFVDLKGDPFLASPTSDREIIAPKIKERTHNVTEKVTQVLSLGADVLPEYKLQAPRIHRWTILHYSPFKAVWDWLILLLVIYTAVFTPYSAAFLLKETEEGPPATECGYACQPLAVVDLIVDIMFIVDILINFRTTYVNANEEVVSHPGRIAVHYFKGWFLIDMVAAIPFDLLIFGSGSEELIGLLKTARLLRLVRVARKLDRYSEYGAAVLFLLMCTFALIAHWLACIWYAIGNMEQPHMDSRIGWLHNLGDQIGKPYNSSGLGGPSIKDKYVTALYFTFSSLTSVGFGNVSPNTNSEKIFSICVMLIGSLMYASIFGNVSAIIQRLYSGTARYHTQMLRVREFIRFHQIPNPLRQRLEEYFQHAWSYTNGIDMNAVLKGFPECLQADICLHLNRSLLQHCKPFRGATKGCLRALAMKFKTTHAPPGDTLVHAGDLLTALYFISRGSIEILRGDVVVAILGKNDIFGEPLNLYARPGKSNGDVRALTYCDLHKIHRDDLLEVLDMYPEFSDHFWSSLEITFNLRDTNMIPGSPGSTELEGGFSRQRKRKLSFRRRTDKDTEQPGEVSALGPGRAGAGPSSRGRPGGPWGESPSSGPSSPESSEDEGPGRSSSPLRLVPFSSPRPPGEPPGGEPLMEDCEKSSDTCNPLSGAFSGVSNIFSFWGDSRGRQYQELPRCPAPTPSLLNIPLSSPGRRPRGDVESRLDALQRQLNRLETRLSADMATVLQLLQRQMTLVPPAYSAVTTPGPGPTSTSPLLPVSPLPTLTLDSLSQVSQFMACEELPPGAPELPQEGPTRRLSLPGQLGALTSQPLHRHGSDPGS
cAMP and cAMP-inhibited cGMP 3',5'-cyclic phosphodiesterase 10A, sequence (Q9Y233 whole entry, the tested form may be a part): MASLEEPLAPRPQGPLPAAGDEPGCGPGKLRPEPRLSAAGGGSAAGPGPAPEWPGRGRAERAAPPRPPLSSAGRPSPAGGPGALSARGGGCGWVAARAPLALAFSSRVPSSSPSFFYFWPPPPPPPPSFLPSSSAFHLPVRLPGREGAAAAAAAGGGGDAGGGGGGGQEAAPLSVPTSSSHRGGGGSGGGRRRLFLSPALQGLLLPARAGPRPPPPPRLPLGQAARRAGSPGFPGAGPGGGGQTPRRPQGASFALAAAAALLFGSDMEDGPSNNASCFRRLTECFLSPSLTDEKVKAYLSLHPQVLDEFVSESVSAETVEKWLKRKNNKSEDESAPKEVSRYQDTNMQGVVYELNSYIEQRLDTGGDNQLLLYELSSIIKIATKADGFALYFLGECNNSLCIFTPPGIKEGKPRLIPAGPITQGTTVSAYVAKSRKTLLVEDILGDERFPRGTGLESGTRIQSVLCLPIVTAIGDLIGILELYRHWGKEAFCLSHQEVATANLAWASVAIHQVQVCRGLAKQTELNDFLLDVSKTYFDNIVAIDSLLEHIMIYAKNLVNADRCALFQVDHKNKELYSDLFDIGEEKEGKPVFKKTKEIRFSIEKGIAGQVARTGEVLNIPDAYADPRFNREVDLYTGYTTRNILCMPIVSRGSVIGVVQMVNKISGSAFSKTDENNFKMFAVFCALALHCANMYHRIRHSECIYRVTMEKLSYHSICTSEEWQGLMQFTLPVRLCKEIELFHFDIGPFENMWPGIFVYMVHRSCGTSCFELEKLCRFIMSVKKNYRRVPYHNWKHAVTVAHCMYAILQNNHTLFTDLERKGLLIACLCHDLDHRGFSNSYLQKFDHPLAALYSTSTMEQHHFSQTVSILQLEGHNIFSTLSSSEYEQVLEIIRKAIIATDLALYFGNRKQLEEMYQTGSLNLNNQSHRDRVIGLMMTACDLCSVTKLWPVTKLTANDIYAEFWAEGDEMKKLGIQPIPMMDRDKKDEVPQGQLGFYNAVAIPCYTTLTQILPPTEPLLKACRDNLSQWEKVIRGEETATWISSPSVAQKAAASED

Row | Structure (SMILES) | IC50 [1] [pM] | solubility [2] [µg/mL] | inhibition at 1 µM (hERG (KCNH2)) [%] | CHI [3] | further results
1 | Cc1nc2ccc(F)cc2nc1-c1cc2nc(N3CCCC3)cc(N[C@H]3CC[C@](C)(O)CC3)n2n1.Cl | 8.8 | 15 | 12 | 3.23 | –
2 | Cc1ccc2nc(C)c(-c3cc4nc(N5CCCC5)cc(N[C@H]5CC[C@](C)(O)CC5)n4n3)nc2c1.Cl | 36 | 62 | 29 | 3.29 | –
3 | Cc1nc2c(C)cccc2nc1-c1cc2nc(N3CCCC3)cc(NC3CCOCC3)n2n1.Cl | 780 | 32 | 94 | – | –
4 | Cc1nc2ccccc2nc1-c1cc2nc(N3CCCC3)cc(NC3CCOCC3)n2n1 | 150 | 8.1 (≈ 18.9 µM) | 63 | – | –
5 | Cc1nc2ccccc2nc1-c1cn2c(NC3CCOCC3)cc(N3CCCC3)nc2n1 | 71000 | – | – | – | –
6 | Cc1ccc2nc(C)c(-c3cc4nc(N5CCCC5)cc(NC5CCOCC5)n4n3)nc2c1.Cl | 90 | > 1000 | 64 | 3.4 | –
7 | Cc1ccc2nc(-c3cc4nc(N5CCCC5)cc(NC5CCOCC5)n4n3)c(C)nc2c1.Cl | 460 | 17 | 80 | – | –
8 | Cc1nc2cccc(C)c2nc1-c1cc2nc(N3CCCC3)cc(NC3CCOCC3)n2n1.Cl | 20 | 121 | 99 | – | –
9 | Cc1nc2ccccc2nc1-c1cc2nc(N3CC[C@@H](F)C3)cc(N(C)C3CCOCC3)n2n1.Cl | – | 4.8 | – | – | IC50 [4]: 61 pM; bioavailability [5]: 19.2%; Kp uu ([6]; Wistar, brain and plasma, read-out: K(p,uu,brain)): 0.61; half-life [7]: 3.2 h; microsomal CLint [8]: 127 µL/min/mg; Ratio IC50 [9]: > 1000; Ratio IC50 [10]: > 1000; Ratio IC50 [11]: > 1000; Ratio IC50 [12]: > 1000; Ratio IC50 [13]: > 1000; Ratio IC50 [14]: > 1000; Ratio IC50 [15]: > 1000; Ratio IC50 [16]: > 1000; Ratio IC50 [17]: > 1000; Ratio IC50 [18]: > 1000
10 | Cc1nc2ccc(F)cc2nc1/C=C/c1nc(NC2CCOCC2)cc(N2CCCC2)n1 | 140 | – | – | – | –
11 | Cc1nc2ccccc2nc1-c1nc2nc(N3CCCC3)cc(NC3CCOCC3)n2n1 | 6000 | – | – | – | –
12 | Cc1nc2ccc(F)cc2nc1-c1cc2nc(N3CCCC3)cc(NCC(C)(C)O)n2n1.Cl | 8.1 | 8.7 | 50 | 3.07 | –
13 | CO[C@H]1CC[C@H](Nc2cc(N3CCCC3)nc3cc(-c4nc5cc(C)ccc5nc4C)nn23)CC1.Cl | 80 | 5.1 | 40 | 4.1 | –
14 | Cc1ccc2nc(C)c(-c3cc4nc(N5CCCC5)cc(N[C@H]5CC[C@H](O)CC5)n4n3)nc2c1.Cl | 33 | 19 | – | – | –
15 | Cc1nc2ccc(F)cc2nc1-c1cc2nc(N3CC[C@@H](F)C3)cc(NCC(C)(C)O)n2n1.Cl | 90 | 118 | 23 | 2.79 | IC50 [4]: 62 pM; IC50 (Phosphodiesterase 4): 289000 pM; IC50 [19]: 437000 pM; IC50 (Phosphodiesterase 6): 561000 pM; bioavailability [5]: 43.7%; K(p,uu,brain) ([6]; brain): 0.5; half-life [7]: 3.09 h; ED50 (Rattus norvegicus): 0.32 mg/kg; CL [20]: 8.77 mL/min/kg; Vdss [21]: 2.307 L/kg
16 | Cc1nc2ccccc2nc1-c1cn2nc(N3CCCC3)cc(NC3CCOCC3)c2n1 | 410 | – | – | – | –
